Laboratory results reported in patent US20250177351A1, “ISOINDOLINE COMPOSITIONS AND METHODS FOR TREATING NEURODEGENERATIVE DISEASE” (Cognition Therapeutics, Inc., priority 2022, published 2025).
Marks after values point to notes of the source that are not given here.

Columns and labels:
[1] = tested on: DIV21 hippocampal/cortical cultures with Aβ oligomers; assay: Neurogranin expression study in vitro; format: cell-based; details: Aβ42 oligomers 500 nM, 1 hr, followed by CT1812 4.8 nM, 24 hr
Protocol: Neurons were fixed in 3.75% formaldehyde and stained with full-length neurogranin (Abcam catalogue #ab23570, used in combination with novel Ng7 to detect full length neurogranin inAlzheimer's disease patient brain IP; Kvartsberg et al. 2015 Blennow lab), MAP2 (Millipore), and 4G8 (Biolegend) antibodies. Imaging was performed on Cellomics VX automated microscope with a 20×, 0.75 NA objective and analyzed using a compartmental analysis algorithm to measure staining in the nucleus versus cytoplasm.

[2] = Phase 1 single ascending dose (SAD)/food-effect study: plasma pharmacokinetics; format: in vivo, human
Protocol: A Phase 1, two-part single and multiple ascending dose study was conducted in 7 and 4 cohorts of healthy human subjects respectively. […] In Part B, subjects were administered 280, 560, and 840 mg once daily for 14 days (8:2 A:P per cohort). An elderly cohort, age 65-75, was dosed at 560 mg once daily for 14 days (7:2 A:P). […] Cognitive testing was performed in the healthy elderly cohort at baseline and at Day 14 of treatment.
Part A was a single ascending dose cohort study in which healthy, young subjects (less than 65 years old) received one dose of study drug in the morning after an overnight fast. Cohort dosing started at 10 mg and increased to 30 mg, 90 mg, 180 mg, 450 mg, and 1120 mg in subsequent cohorts. Six drug-treated and two placebo-treated subjects were randomized in each cohort. A seventh cohort of six subjects each received a single 90 mg dose of drug 30 min. after a meal. Following completion of all safety assessments and blood draws for PK analyses, subjects were discharged on Day 3.
In Part A, blood draws for assessment of PK parameters occurred pre-dose and at 15, 30, 45, 60, and 90 minutes post dose as well as at 2, 3, 4, 8, 12, 24, 36, and 48 hours post dose. […] In Part B, blood samples for plasma PK analysis were taken on Day 1 at pre-dose and at 2 hours post-dose, on Day 3 at pre-dose and at 15, 30 and 45 minutes and 1, 2, 3, 4, 8, 12 and 24 hours post-dose, on Days 4, 6, 8 and 10 at pre-dose and at 1.5 hours post-dose and following the final dose on Day 14 at pre-dose and 15, 30 and 45 minutes and 1, 2, 4, 8, 12, 24, 36 and 48 hours post-dose.
This was assessed by analysis of variance (ANOVA) of log-transformed Cmax, AUC0-24, AUC0-48, and/or AUC0-inf, using a model with factors for treatment (fed status or age [young vs. elderly] status) and subject within sequence. Treatment mean differences and 90% confidence intervals of the log transformed PK parameters were back-transformed, to present the geometric least squares means ratios and 90% confidence limits.

[3] = Phase 1 MAD study: safety assessments; format: in vivo, human
Protocol: In Part B, healthy young subjects in each cohort received the same dose once daily for 14 days after overnight fasting. Cohort dosing started at 280 mg, followed by 560 mg and 840 mg in subsequent cohorts. In each cohort, eight subjects received drug and two received placebo. A fourth cohort of healthy elderly subjects (≥65 years old) received a 560 mg dose vs. placebo daily for 14 days (seven active, two placebo).
Subjects were dosed in the morning with 240 mL of water after an 8-hour fast, and remained in a semi-reclined position for 1 hour and fasting for 2 hours post-administration, except for the fed cohort in Part A. Subjects in each MAD cohort were confined to the clinical facility from check-in on Day 0 until the pharmacokinetic sample was collected on Day 16, 48 hours after administration of the last dose on Day 14. Subjects returned to the clinical facility for follow-up visits on Days 24 and 35.
Safety variables, including incidence of adverse events (AEs), vital signs, clinical laboratory findings, 12-lead electrocardiographs (ECGs), physical examination, and affective and cognitive measures (Part B only), were summarized for all subjects who received study drug.

CSF proteins = assay: CSF proteomics by tandem-mass tag mass spectrometry (TMT-MS), SPARC trial; format: in vivo, human
Source text: A stringent filter was used to reduce noise. […] Samples were acquired from placebo and the drug and interventional cohort. Using biomarker differential-expression analysis, proteins that were differentially expressed between drug and placebo cohorts were identified (p<0.05).

CYP isoenzymes = assay: Drug interaction studies
[4] = MAD, age ≤ 64 years, 280 mg (n = 8)
[5] = MAD, age ≤ 64 years, 560 mg (n = 8)
[6] = MAD, age ≤ 64 years, 840 mg (n = 8)
[7] = MAD, age ≥ 65 years, 560 mg (n = 7)
[8] = AD patients treated at least 6 months, p<0.05

Structure (SMILES): CC(C)(C)Oc1cc(CCC(C)(C)N2Cc3ccc(S(C)(=O)=O)cc3C2)ccc1O [CT1812]
- full length neurogranin protein expression in neurons [1]: restores neurogranin expression
- exposure based on AUC, fed vs. fasted ([2]; 90 mg): no significant difference
- t1/2 ([2]; SAD fasted 10 mg, Day 1, plasma, mean (n = 5)): 12.0^‡ hr
- t1/2 ([2]; SAD fasted 450 mg (n = 6), plasma, mean): 12.2 h
- increase of Cmax and AUC with dose ([2]; SAD, 10 mg to 1120 mg): slightly greater than dose proportionally
- AUC0-48h lower under fed vs fasted conditions (geometric least-squares mean) ([2]; single 90 mg oral dose): ~20%
- AUC0-inf lower under fed vs fasted conditions (geometric least-squares mean) ([2]; single 90 mg oral dose): ~20%
- Cmax lower under fed vs fasted conditions (geometric least-squares mean) ([2]; single 90 mg oral dose): approximately 40%
- tolerability ([3]; 280 mg to 840 mg QD for 14 days, healthy subjects): well tolerated
- ECG ([3]; MAD): No ECG parameters or changes were assessed as clinically significant
- Number of Subjects with TEAE: Back pain ([3]; MAD Total Active (n = 31)): 2
- Number of Subjects with TEAE: Catheter site phlebitis ([3]; MAD Total Active (n = 31)): 2
- Number of Subjects with TEAE: Dizziness ([3]; MAD Total Active (n = 31)): 3
- Number of Subjects with TEAE: Dyspepsia ([3]; MAD Total Active (n = 31)): 3
- Number of Subjects with TEAE: Headache ([3]; MAD Total Active (n = 31)): 10
- Number of Subjects with TEAE: Nausea ([3]; MAD Total Active (n = 31)): 2
- Number of Subjects with TEAE: Procedural pain ([3]; MAD Total Active (n = 31)): 6
- Number of Subjects with TEAE: Upper respiratory tract infection ([3]; MAD Total Active (n = 31)): 8
- Number of Subjects with TEAE: Vomiting ([3]; MAD Total Active (n = 31)): 2
- Number of Subjects with at least one Treatment-Emergent AE: All TEAES ([3]; MAD Total Active (n = 31)): 25
- Number of Subjects with TEAE: Dizziness [3, 4]: 1
- Number of Subjects with TEAE: Dyspepsia [3, 4]: 1
- Number of Subjects with TEAE: Headache [3, 4]: 2
- Number of Subjects with TEAE: Nausea [3, 4]: 1
- Number of Subjects with TEAE: Upper respiratory tract infection [3, 4]: 5
- Number of Subjects with at least one Treatment-Emergent AE: All TEAES [3, 4]: 7
- Number of Subjects with TEAE: Catheter site phlebitis [3, 5]: 1
- Number of Subjects with TEAE: Dyspepsia [3, 5]: 1
- Number of Subjects with TEAE: Headache [3, 5]: 1
- Number of Subjects with TEAE: Procedural pain [3, 5]: 4
- Number of Subjects with TEAE: Upper respiratory tract infection [3, 5]: 1
- Number of Subjects with at least one Treatment-Emergent AE: All TEAES [3, 5]: 7
- Number of Subjects with TEAE: Back pain [3, 6]: 1
- Number of Subjects with TEAE: Catheter site phlebitis [3, 6]: 1
- Number of Subjects with TEAE: Dizziness [3, 6]: 1
- Number of Subjects with TEAE: Dyspepsia [3, 6]: 1
- Number of Subjects with TEAE: Headache [3, 6]: 4
- Number of Subjects with TEAE: Nausea [3, 6]: 1
- Number of Subjects with TEAE: Procedural pain [3, 6]: 2
- Number of Subjects with TEAE: Upper respiratory tract infection [3, 6]: 2
- Number of Subjects with TEAE: Vomiting [3, 6]: 2
- Number of Subjects with at least one Treatment-Emergent AE: All TEAES [3, 6]: 6
- Number of Subjects with TEAE: Back pain [3, 7]: 1
- Number of Subjects with TEAE: Dizziness [3, 7]: 1
- Number of Subjects with TEAE: Headache [3, 7]: 3
- Number of Subjects with at least one Treatment-Emergent AE: All TEAES [3, 7]: 5
- serious AE (SAE) ([3]; MAD, subject on 840 mg, respiratory picornavirus infection deemed unrelated to study treatment): One
- subjects developing a rash ([3]; MAD, improvement after discontinuing CT1812): One
- subjects with increase in liver function tests below 3× the upper limit of normal ([3]; MAD, including one subject on placebo): Four
- CHI3L1 (YKL-40) in CSF vs placebo (CSF proteins; [8]): significantly decreased
- CLU (clusterin) in CSF vs placebo (CSF proteins; [8]): significantly decreased
- SMOC1 in CSF vs placebo (CSF proteins; [8]): significantly decreased
- number of significantly abundant proteins in CSF, CT1812 vs placebo (CSF proteins; N=18, p<0.05): 326
- interactions with CYP isoenzymes (CYP isoenzymes): minor interactions
